Measured values from US5614519A, “(1-(2,3 or 4-N-morpholinoalkyl)-imidazol-4-yl)-benizimidazol-1-yl-methyl]-biphenyls useful as angiotensin-II antagonists” (Karl Thomae GmbH, priority 1991, dated 1997).

tested on: conscious renally hypertensive rats; assay: Effect after oral administration in conscious renally hypertensive rats; type: in vivo, rat; conditions: 10 mg/kg
Experimental: In addition, compounds D, E, F, G, H, M and O were tested on conscious renally hypertensive rats for their effect after oral administration using methods known from the literature.

Structure (SMILES) | hypotensive effect
CCCc1nc2c(C)cc(N3CCCCS3(=O)=O)cc2n1Cc1ccc(-c2ccccc2-c2nn[nH]n2)cc1 [Substance G, 4'-[[2-n-propyl-4-methyl-6-(butanesultam-1-yl)-benzimidazol-1-yl]-methyl]-2-(1H-tetrazol-5-yl)-biphenyl] | hypotensive effect
CCCCc1nc2c(C)cc(N3C(=O)C(C)=C(C)C3=O)cc2n1Cc1ccc(-c2ccccc2C(=O)O)cc1 [Substance H, 4'-[[2-n-butyl-6-(2,3-dimethylmaleic acid imino)-4-methyl-benzimidazol-1-yl]-methyl]-biphenyl-2-carboxylic acid semihydrate] | hypotensive effect
CCCc1nc2c(C)cc(-c3nc4ccccc4n3C)cc2n1Cc1ccc(-c2ccccc2-c2nnn[nH]2)cc1 [Substance E, 4'-[[2-n-propyl-4-methyl-6-(1-methylbenzimidazol-2-yl)-benzimidazol-1-yl]-methyl]-2-(1H-tetrazol-5-yl)-biphenyl] | hypotensive effect
Cc1cc(-c2nc3ccccc3n2C)cc2c1nc(C1CC1)n2Cc1ccc(-c2ccccc2C(=O)O)cc1 [Substance M, 4'-[(2-cyclopropyl-4-methyl-6-(1-methylbenzimidazol-2-yl)-benzimidazol-1-yl)-methyl]-biphenyl-2-carboxylic acid] | hypotensive effect
CCCc1nc2c(C)cc(-c3cn4cccnc4n3)cc2n1Cc1ccc(-c2ccccc2-c2nnn[nH]2)cc1 [Substance O, 4'-[(2-n-propyl-4-methyl-6-(imidazo[1,2-a]pyrimidin-2-yl)-benzimidazol-1-yl)-methyl]-2-(1H-tetrazol-5-yl)-biphenyl] | hypotensive effect
CCCc1nc2c(C)cc(-c3nc4ccccc4n3C)cc2n1Cc1ccc(-c2ccccc2C(=O)O)cc1 [Substance D, 4'-[[2-n-propyl-4-methyl-6-(1-methylbenzimidazol-2-yl)-benzimidazol-1-yl]-methyl]-biphenyl-2-carboxylic acid] | hypotensive effect
CCCc1nc2c(C)cc(N3Cc4ccccc4C3=O)cc2n1Cc1ccc(-c2ccccc2-c2nnn[nH]2)cc1 [Substance F, 4'-[[2-n-propyl-4-methyl-6-(1-oxo-isoindolin-2-yl)-benzimidazol-1-yl]-methyl]-2-(1H-tetrazol-5-yl)-biphenyl] | hypotensive effect
